Test results taken from publication PMC5159881 (Nature Communications, 2016).
Like-named read-outs stand apart in the source and are kept apart here.

Tests used:
[1] = target: T1, AR1-651 (Homo sapiens, UniProt P10275); test: MMTV-luc dual luciferase reporter assay, AR1-651-induced activity in 22RV1 cells; type: cell-based; conditions: for MMTV-luc Activity (%), AR1-651-induced: 22RV1, AR1-651 +, 12 h;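 for all read-outs here: luminometric read-out of firefly luciferase signal normalized to Renilla luciferase signal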
T1 construct: FLAG; expressed in transfected cells; host or cells: 22RV1
T1 sequence (P10275 1-651): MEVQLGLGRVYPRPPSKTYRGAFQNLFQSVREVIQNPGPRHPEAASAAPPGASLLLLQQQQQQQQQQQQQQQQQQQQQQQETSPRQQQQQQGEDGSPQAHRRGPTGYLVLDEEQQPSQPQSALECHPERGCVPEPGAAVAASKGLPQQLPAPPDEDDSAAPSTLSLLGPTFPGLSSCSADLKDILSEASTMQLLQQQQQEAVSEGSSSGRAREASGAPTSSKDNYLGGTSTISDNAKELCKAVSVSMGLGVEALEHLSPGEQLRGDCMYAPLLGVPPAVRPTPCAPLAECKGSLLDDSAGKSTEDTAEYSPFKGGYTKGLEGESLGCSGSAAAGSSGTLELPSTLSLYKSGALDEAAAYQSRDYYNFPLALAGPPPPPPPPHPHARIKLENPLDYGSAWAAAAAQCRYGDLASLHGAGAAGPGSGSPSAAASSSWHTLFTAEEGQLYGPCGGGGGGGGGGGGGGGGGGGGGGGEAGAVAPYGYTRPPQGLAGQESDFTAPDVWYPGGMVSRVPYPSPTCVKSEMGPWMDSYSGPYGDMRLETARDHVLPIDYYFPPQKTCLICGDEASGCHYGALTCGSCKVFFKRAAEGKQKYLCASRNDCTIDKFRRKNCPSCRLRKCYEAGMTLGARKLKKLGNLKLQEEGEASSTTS
Description: (§1) Renilla and firefly activities were then determined by luminometry using the Dual-Luciferase Reporter Assay System (Promega) and the ratio calculated. Results were expressed as the ratio of firefly to Renilla luciferase activity.

[2] = target: AR-FL (Homo sapiens, UniProt P10275); test: MMTV-luc dual luciferase reporter assay, DHT-induced AR activity in 22RV1 cells; type: cell-based; conditions: 22RV1, DHT +, compound 10 µM, 12 h, mean ± s.d., n=3
Description: as §1
After transient transfection of MMTV-luc and Renilla-luc in 22RV1, the MMTV-luc
activities were stimulated by androgen DHT. Then cells were treated with indicated
expressed as the ratio of luciferase activity. Values are presented as mean ± s.d., n =

[3] = compound 10 µM, mean ± s.d., n=3
[4] = 22Rv1, read-out: MMTV-luc Activity (%), AR1-651-induced, 22RV1, AR1-651 +, compound 1 µM, 12 h
[5] = 22Rv1, read-out: MMTV-luc Activity (%), AR1-651-induced, 22RV1, AR1-651 +, compound 10 µM, 12 h, mean ± s.d., n=3
[6] = 22Rv1, read-out: MMTV-luc Activity (%), AR1-651-induced

AR-FL, sequence (P10275 whole entry): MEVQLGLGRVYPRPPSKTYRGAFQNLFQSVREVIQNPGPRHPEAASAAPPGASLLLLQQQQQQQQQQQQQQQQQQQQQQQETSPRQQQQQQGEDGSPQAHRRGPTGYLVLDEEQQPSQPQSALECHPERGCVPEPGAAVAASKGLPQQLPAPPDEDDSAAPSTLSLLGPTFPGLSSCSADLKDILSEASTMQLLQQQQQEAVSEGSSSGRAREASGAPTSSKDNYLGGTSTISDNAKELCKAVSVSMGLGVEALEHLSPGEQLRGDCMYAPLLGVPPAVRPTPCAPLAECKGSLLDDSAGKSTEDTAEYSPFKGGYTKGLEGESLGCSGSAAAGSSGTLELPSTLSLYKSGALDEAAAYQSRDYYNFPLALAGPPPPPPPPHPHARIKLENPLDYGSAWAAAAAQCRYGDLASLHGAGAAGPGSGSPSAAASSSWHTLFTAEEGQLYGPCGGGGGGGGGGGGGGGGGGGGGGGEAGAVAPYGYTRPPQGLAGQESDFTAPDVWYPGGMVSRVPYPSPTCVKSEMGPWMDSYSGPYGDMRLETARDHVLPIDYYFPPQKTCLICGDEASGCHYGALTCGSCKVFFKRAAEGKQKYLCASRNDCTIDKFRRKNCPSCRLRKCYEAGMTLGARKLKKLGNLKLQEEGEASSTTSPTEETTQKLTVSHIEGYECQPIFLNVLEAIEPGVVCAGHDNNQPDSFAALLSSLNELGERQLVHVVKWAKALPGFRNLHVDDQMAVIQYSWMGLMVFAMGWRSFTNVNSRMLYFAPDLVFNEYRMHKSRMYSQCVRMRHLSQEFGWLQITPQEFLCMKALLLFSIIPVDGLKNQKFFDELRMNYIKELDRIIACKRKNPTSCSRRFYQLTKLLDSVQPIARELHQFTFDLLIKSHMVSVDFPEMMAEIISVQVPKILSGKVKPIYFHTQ

activity at 10 µM [1, 5]	Compound	MMTV-luc Activity (%), AR1-651-induced [1, 3]	other results
–	O=C1CCC[C@@H]2[C@H]3CCC[N@+]4([O-])CCC[C@@H](CN12)[C@@H]34 [Ammothamnine]	105.7%	MMTV-luc Activity (%), DHT-induced [2]: 119.1±20.9%
59.5%	C=C1CC[C@@H]2[C@](C)(CO)[C@H](O)CC[C@@]2(C)[C@@H]1C/C=C1/C(=O)OC[C@H]1O [Andrographolide]	–	activity at 1 µM [1, 4]: 70%
112%	O=C1C=CC2(CCC23C=CC(=O)O3)O1 (centres unmarked) [Anemonin]	–	–
113%	O=C(O)[C@H]1O[C@@H](Oc2cc3oc(-c4ccccc4)cc(=O)c3c(O)c2O)[C@H](O)[C@@H](O)[C@@H]1O [Baicalin]	–	–
65.2%	C=C(C)[C@@H]1CC[C@]2(C(=O)O)CC[C@]3(C)[C@H](CC[C@@H]4[C@@]5(C)CC[C@H](O)C(C)(C)[C@@H]5CC[C@]43C)[C@@H]12 [Betulinic acid]	–	–
–	CC(C)(C)[C@]1(O)CC2OC(=O)CC23C(=O)OC2OC(=O)[C@H](O)C231 (some centres unmarked) [Bilobalide]	–	activity at 10 µM [1, 6]: 98.7 ± 1.1%
178%	COc1cc(/C=C/C(=O)CC(=O)/C=C/c2ccc(O)c(OC)c2)ccc1O [Curcumin]	–	–
–	C=C1C[C@@]2(O)O[C@@]3(C[C@H]2C(C)C)[C@@H](C)CC[C@@H]13 [Curcumol]	43.7%	MMTV-luc Activity (%), AR1-651-induced ([1]; compound 1 µM): 86.4±7.7%; MMTV-luc Activity (%), DHT-induced [2]: 90.0±9.2%
177%	O=c1c(-c2ccc(O)cc2)coc2cc(O)ccc12 [Daidzein]	–	–
89.8 ± 8%	O=C1c2c(O)cc(O)cc2O[C@H](c2cc(O)c(O)c(O)c2)[C@H]1O [Dihydromyricetin]	–	–
148%	C[C@@H]1CC[C@@]2(OC1)O[C@H]1C[C@H]3[C@@H]4CC=C5C[C@@H](O)CC[C@]5(C)[C@H]4CC[C@]3(C)[C@H]1[C@@H]2C [Diosgenin]	–	–
–	CC(C)(c1ccc(OCC(O)CO)cc1)c1ccc(OCC(O)CCl)cc1 (stereo not drawn) [EPI-001, reference compound]	–	MMTV-luc Activity (%), AR1-651-induced ([1]; compound 25 µM): 54.2%
96.3 ± 6.1%	CC(C)[C@@H](C)/C=C/[C@@H](C)[C@H]1CC[C@H]2C3=CC=C4C[C@@H](O)CC[C@]4(C)[C@H]3CC[C@]12C [Ergosterol]	–	–
–	OCc1ccc(O[C@@H]2O[C@H](CO)[C@@H](O)[C@H](O)[C@H]2O)cc1 [Gastrodin]	–	activity at 10 µM [1, 6]: 70 ± 3.7%
157%	O=c1c(-c2ccc(O)cc2)coc2cc(O)cc(O)c12 [Genistein]	–	–
–	COc1ccc([C@@H]2CC(=O)c3c(O)cc(O[C@@H]4O[C@H](CO[C@@H]5O[C@@H](C)[C@H](O)[C@@H](O)[C@H]5O)[C@@H](O)[C@H](O)[C@H]4O)cc3O2)cc1O [Hesperidin]	110.2±13%	MMTV-luc Activity (%), DHT-induced [2]: 85.5±23.9%
95.5%	O=c1c(O[C@@H]2O[C@H](CO)[C@@H](O)[C@H](O)[C@H]2O)c(-c2ccc(O)c(O)c2)oc2cc(O)cc(O)c12 [Isoquercitrin]	–	–
–	COc1cc(-c2oc3cc(O)cc(O)c3c(=O)c2O)ccc1O [Isorhamnetin]	–	activity at 10 µM [1, 6]: 139%
61.9%	CCNC(=O)CC[C@H](N)C(=O)O [L-Theanine]	–	–
82.7 ± 4.5%	O=c1cc(-c2ccc(O)c(O)c2)oc2cc(O)cc(O)c12 [Luteolin]	–	–
–	O[C@H]1[C@H]2c3cc4c(cc3CN3CCC(=C[C@@H]1O)[C@H]23)OCO4 [Lycorine]	–	activity at 10 µM [1, 6]: 66%
–	C=CCc1ccc(O)c(-c2cc(CC=C)ccc2O)c1 [Magnolol]	–	activity at 1 µM [1, 6]: 60.6%; activity at 10 µM [1, 6]: 59.3%

activity at 10 µM [1, 5]	Compound	MMTV-luc Activity (%), AR1-651-induced [1, 3]	other results
–	CC1(C)CC[C@]2(C(=O)O)CC[C@]3(C)C(=CC[C@@H]4[C@@]5(C)CC[C@H](O)C(C)(C)[C@@H]5CC[C@]43C)[C@@H]2C1 [Oleanic acid]	153.4%	MMTV-luc Activity (%), DHT-induced [2]: 122.4±7.5%
88.5%	C[C@@]12C[C@@]3(O)O[C@@H](O1)[C@]1(COC(=O)c4ccccc4)[C@H]3C[C@@]12O[C@@H]1O[C@H](CO)[C@@H](O)[C@H](O)[C@H]1O [Paeoniflorin]	–	–
52.9%	O=C(CCc1ccc(O)cc1)c1c(O)cc(O)cc1O[C@@H]1O[C@H](CO)[C@@H](O)[C@H](O)[C@H]1O [Phlorizin]	–	activity at 1 µM [1, 4]: 126%
–	Cc1cc(O)c(C(=O)CCC(C)C)c(=O)o1 [Pogostone]	157.2%	MMTV-luc Activity (%), DHT-induced [2]: 92.3±13.3%
–	O=Cc1ccc(O)c(O)c1 [Protocatechuic aldehyde]	62.5%	MMTV-luc Activity (%), DHT-induced [2]: 83.1±0.1%
90 ± 5.4%	COc1cc(/C=C/c2ccc(O)cc2)cc(OC)c1 [Pterostilbene]	–	–
80.1 ± 1.8%	O=c1c(-c2ccc(O)cc2)coc2c([C@@H]3O[C@H](CO)[C@@H](O)[C@H](O)[C@H]3O)c(O)ccc12 [Puerarin]	–	–
115%	O=C(/C=C/c1ccc(O)c(O)c1)O[C@H](Cc1ccc(O)c(O)c1)C(=O)O [Rosmarinic acid]	–	–
91.4%	C[C@@H]1O[C@@H](OC[C@H]2O[C@@H](Oc3c(-c4ccc(O)c(O)c4)oc4cc(O)cc(O)c4c3=O)[C@H](O)[C@@H](O)[C@@H]2O)[C@H](O)[C@H](O)[C@H]1O [Rutin]	–	–
–	O=C([O-])C(O)Cc1ccc(O)c(O)c1.[Na+] (centres unmarked) [Sodium Danshensu]	73.3%	MMTV-luc Activity (%), DHT-induced [2]: 93.0±14.7%
–	C=C[C@H]1[C@H](O[C@@H]2O[C@H](CO)[C@@H](O)[C@H](O)[C@H]2O)OC=C2C(=O)OCC[C@]21O [Swertiamain]	64.7±7.5%	MMTV-luc Activity (%), DHT-induced [2]: 80.9±8.5%
105%	Cc1coc2c1C(=O)C(=O)c1c-2ccc2c1CCCC2(C)C [Tanshinone IIA]	–	–
99.9 ± 4.1%	Cc1coc2c1C(=O)C(=O)c1c-2ccc2c(C)cccc12 [Tanshinone I]	–	–
–	CN1CCc2cc3c(cc2[C@H]1[C@@H]1OC(=O)c2c1ccc1c2OCO1)OCO3 [d-Bicuculline]	112.1%	MMTV-luc Activity (%), DHT-induced [2]: 75.0±11.5%
–	CC1(C)[C@@H](O)CC[C@]2(C)[C@H]3C(=O)C=C4[C@@H]5C[C@@](C)(C(=O)O)CC[C@]5(C)CC[C@@]4(C)[C@]3(C)CC[C@@H]12 [glycyrrhetic acid]	308.3%	MMTV-luc Activity (%), DHT-induced [2]: 101.3±11.9%
–	O=C(/C=C/c1ccc(O)c2c1[C@H](C(=O)O[C@H](Cc1ccc(O)c(O)c1)C(=O)O)[C@@H](c1ccc(O)c(O)c1)O2)O[C@H](Cc1ccc(O)c(O)c1)C(=O)O [lithospermic acid B]	96.3±4.2%	MMTV-luc Activity (%), DHT-induced [2]: 115.9±27.9%
104%	O=C(O)C1=C[C@@H](O)[C@@H](O)[C@H](O)C1 [shikimic acid]	–	–
–	Asiaticoside	150.9%	–
–	D-Tanshinone I	138.3%	–
–	Myricitrin	102.1%	–
–	astragalosideⅠ	87.0±5.2%	MMTV-luc Activity (%), DHT-induced [2]: 117.8±5.2%

Compound	activity at 10 µM [1, 5]	MMTV-luc Activity (%), AR1-651-induced [1, 3]	other results
CC(C)=CCC[C@](C)(O[C@@H]1O[C@H](CO)[C@@H](O)[C@H](O)[C@H]1O)[C@H]1CC[C@]2(C)[C@@H]1[C@H](O)C[C@@H]1[C@@]3(C)CC[C@H](O)C(C)(C)[C@@H]3[C@@H](O[C@@H]3O[C@H](CO)[C@@H](O)[C@H](O)[C@H]3O)C[C@]12C [Ginsenoside Rg1]	77.2%	–	–
CC1=CC(=O)c2c(O)cccc2C1=O [Plumbagin]	28.8 ± 7.9%	–	activity at 1 µM [1, 4]: 128%
